Laboratory results published in BigSolDB 2.1.

CCOC(=O)C1=C(C)NC(C)=C(C(=O)OCC)C1
Details | solubility (mole fraction)
in 2-butanone, 272.15 K | 0.00182
in 2-butanone, 278.15 K | 0.00274
in 2-butanone, 283.15 K | 0.00382
in 2-butanone, 288.15 K | 0.00525
in 2-butanone, 293.15 K | 0.00717
in 2-butanone, 298.15 K | 0.00965
in 2-butanone, 303.35 K | 0.013
in 2-butanone, 308.25 K | 0.0171
in 2-butanone, 313.15 K | 0.0222
in 2-butanone, 318.15 K | 0.0288
in 2-butanone, 323.65 K | 0.038
in 2-pentanone, 272.15 K | 0.00169
in 2-pentanone, 278.15 K | 0.00255
in 2-pentanone, 283.15 K | 0.00353
in 2-pentanone, 288.15 K | 0.00485
in 2-pentanone, 293.15 K | 0.00657
in 2-pentanone, 298.15 K | 0.00881
in 2-pentanone, 303.35 K | 0.0119
in 2-pentanone, 308.25 K | 0.0155
in 2-pentanone, 313.15 K | 0.0202
in 2-pentanone, 318.15 K | 0.026
in 2-pentanone, 323.65 K | 0.0345
in acetone, 272.15 K | 0.00112
in acetone, 278.15 K | 0.00165
in acetone, 283.15 K | 0.00225
in acetone, 288.15 K | 0.00304
in acetone, 293.15 K | 0.00407
in acetone, 298.15 K | 0.0054
in acetone, 303.35 K | 0.00718
in acetone, 308.25 K | 0.00926
in acetone, 313.15 K | 0.0119
in acetone, 318.15 K | 0.0152
in acetone, 323.65 K | 0.02
in acetonitrile, 272.15 K | 0.000235
in acetonitrile, 278.15 K | 0.000356
in acetonitrile, 283.15 K | 0.000495
in acetonitrile, 288.15 K | 0.000687
in acetonitrile, 293.15 K | 0.000931
in acetonitrile, 298.15 K | 0.00126
in acetonitrile, 303.35 K | 0.0017
in acetonitrile, 308.25 K | 0.00224
in acetonitrile, 313.15 K | 0.00291
in acetonitrile, 318.15 K | 0.0038
in acetonitrile, 323.65 K | 0.00503
in ethanol, 272.15 K | 0.000414
in ethanol, 277.95 K | 0.000587
in ethanol, 283.15 K | 0.000795
in ethanol, 288.15 K | 0.00105
in ethanol, 293.05 K | 0.00137
in ethanol, 298.15 K | 0.00179
in ethanol, 303.15 K | 0.00232
in ethanol, 308.05 K | 0.00294
in ethanol, 312.35 K | 0.00362
in ethanol, 318.15 K | 0.00472
in ethanol, 323.15 K | 0.0059
in ethyl acetate, 272.15 K | 0.00135
in ethyl acetate, 278.15 K | 0.00195
in ethyl acetate, 283.15 K | 0.00261
in ethyl acetate, 288.15 K | 0.00345
in ethyl acetate, 293.15 K | 0.00453
in ethyl acetate, 298.15 K | 0.00588
in ethyl acetate, 303.35 K | 0.00767
in ethyl acetate, 308.25 K | 0.00977
in ethyl acetate, 313.15 K | 0.0123
in ethyl acetate, 318.15 K | 0.0155
in ethyl acetate, 323.65 K | 0.0198
in ethyl formate, 272.15 K | 0.00082
in ethyl formate, 278.15 K | 0.00117
in ethyl formate, 283.15 K | 0.00155
in ethyl formate, 288.15 K | 0.00204
in ethyl formate, 293.15 K | 0.00266
in ethyl formate, 298.15 K | 0.00343
in ethyl formate, 303.35 K | 0.00444
in ethyl formate, 308.25 K | 0.00562
in ethyl formate, 313.15 K | 0.00703
in ethyl formate, 318.15 K | 0.00881
in ethyl formate, 323.65 K | 0.0112
in isobutanol, 272.15 K | 0.000707
in isobutanol, 277.95 K | 0.00106
in isobutanol, 283.15 K | 0.00151
in isobutanol, 288.15 K | 0.00209
in isobutanol, 293.05 K | 0.00283
in isobutanol, 298.15 K | 0.00386
in isobutanol, 303.15 K | 0.00517
in isobutanol, 308.05 K | 0.00684
in isobutanol, 312.35 K | 0.00863
in isobutanol, 318.15 K | 0.0117
in isobutanol, 323.15 K | 0.0152
in isopentanol, 272.15 K | 0.000677
in isopentanol, 277.95 K | 0.000996
in isopentanol, 283.15 K | 0.00139
in isopentanol, 288.15 K | 0.00189
in isopentanol, 293.05 K | 0.00254
in isopentanol, 298.15 K | 0.00341
in isopentanol, 303.15 K | 0.0045
in isopentanol, 308.05 K | 0.00587
in isopentanol, 312.35 K | 0.00738
in isopentanol, 318.15 K | 0.00989
in isopentanol, 323.15 K | 0.0126
in isopropanol, 272.15 K | 0.000462
in isopropanol, 277.95 K | 0.00066
in isopropanol, 283.15 K | 0.000904
in isopropanol, 288.15 K | 0.0012
in isopropanol, 293.05 K | 0.00158
in isopropanol, 298.15 K | 0.00208
in isopropanol, 303.15 K | 0.00269
in isopropanol, 308.05 K | 0.00344
in isopropanol, 312.35 K | 0.00424
in isopropanol, 318.15 K | 0.00557
in isopropanol, 323.15 K | 0.00702
in methanol, 272.15 K | 0.000246
in methanol, 277.95 K | 0.000355
in methanol, 283.15 K | 0.000486
in methanol, 288.15 K | 0.000655
in methanol, 293.05 K | 0.000865
in methanol, 298.15 K | 0.00114
in methanol, 303.15 K | 0.0015
in methanol, 308.05 K | 0.00192
in methanol, 312.35 K | 0.00238
in methanol, 318.15 K | 0.00315
in methanol, 323.15 K | 0.004
in methyl acetate, 272.15 K | 0.00103
in methyl acetate, 278.15 K | 0.00146
in methyl acetate, 283.15 K | 0.00192
in methyl acetate, 288.15 K | 0.00251
in methyl acetate, 293.15 K | 0.00326
in methyl acetate, 298.15 K | 0.0042
in methyl acetate, 303.35 K | 0.00541
in methyl acetate, 308.25 K | 0.00679
in methyl acetate, 313.15 K | 0.00848
in methyl acetate, 318.15 K | 0.0106
in methyl acetate, 323.65 K | 0.0134
in n-butanol, 272.15 K | 0.000605
in n-butanol, 277.95 K | 0.000859
in n-butanol, 283.15 K | 0.00116
in n-butanol, 288.15 K | 0.00154
in n-butanol, 293.05 K | 0.00201
in n-butanol, 298.15 K | 0.00262
in n-butanol, 303.15 K | 0.00338
in n-butanol, 308.05 K | 0.0043
in n-butanol, 312.35 K | 0.00528
in n-butanol, 318.15 K | 0.00691
in n-butanol, 323.15 K | 0.00862
in n-pentanol, 272.15 K | 0.000647
in n-pentanol, 277.95 K | 0.000925
in n-pentanol, 283.15 K | 0.00126
in n-pentanol, 288.15 K | 0.00169
in n-pentanol, 293.05 K | 0.00221
in n-pentanol, 298.15 K | 0.00292
in n-pentanol, 303.15 K | 0.00378
in n-pentanol, 308.05 K | 0.00483
in n-pentanol, 312.35 K | 0.00597
in n-pentanol, 318.15 K | 0.00787
in n-pentanol, 323.15 K | 0.00988
in n-propanol, 272.15 K | 0.000513
in n-propanol, 277.95 K | 0.000735
in n-propanol, 283.15 K | 0.000998
in n-propanol, 288.15 K | 0.00133
in n-propanol, 293.05 K | 0.00174
in n-propanol, 298.15 K | 0.00229
in n-propanol, 303.15 K | 0.00296
in n-propanol, 308.05 K | 0.0038
in n-propanol, 312.35 K | 0.00468
in n-propanol, 318.15 K | 0.00613
in n-propanol, 323.15 K | 0.00773
in toluene, 272.15 K | 0.00015
in toluene, 278.15 K | 0.00023
in toluene, 283.15 K | 0.000323
in toluene, 288.15 K | 0.000449
in toluene, 293.15 K | 0.000618
in toluene, 298.15 K | 0.000839
in toluene, 303.35 K | 0.00114
in toluene, 308.25 K | 0.00151
in toluene, 313.15 K | 0.00198
in toluene, 318.15 K | 0.0026
in toluene, 323.65 K | 0.00346
